This passage reports efficacy and chromatographic logP results from US6407097B1, “Methoximinomethyloxathiazines” (Bayer Aktiengesellschaft, priority 1998, dated 2002).

The test system of data set [1] is Sphaerotheca fuliginea. In words: Sphaerotheca test (cucumber)/protective. It counts as in vivo. Particulars: protective, application rate 100 g/ha, evaluation 10 days after inoculation. The method, then: Sphaerotheca test (cucumber)/protective Solvent: 47 parts by weight of acetone Emulsifier: 3 parts by weight of alkylaryl polyglycol ether To produce a suitable preparation of active compound, 1 part by weight of active compound is mixed with the stated amounts of solvent and emulsifier, and the concentrate is diluted with water to the desired concentration. To test for protective activity, young plants are sprayed with the preparation of active compound at the stated application rate. After the spray coating has dried on, the plants are inoculated with an aqueous spore suspension of Sphaerotheca fuliginea. The plants are then placed in a greenhouse at approximately 23° C. and a relative atmospheric humidity of approximately 70%. Evaluation is carried out 10 days after the inoculation. 0% means an efficacy which corresponds to that of the control, whereas an efficacy of 100% means that no infection is observed.

A short description of data set [2]: logP by HPLC (EEC directive 79/831 Annex V. A8, gradient method). The format is physicochemical. Particulars: starting materials/intermediates, read-out: HPLC: log P.

The compound `CON=C(C1=NOCCS1)c1ccccc1Oc1ncnc(Oc2ccccc2)c1F` [Example 1, (5,6-dihydro-[1,4,2]-oxathiazin-3-yl)-2-[(5-fluoro-6-phenoxy-pyrimidine-4-yloxy)-phenyl]-methanone O-methyloxime] gave an efficacy in data set [1] of no less than 90%.

Consider `CON=C(C1=NOCCS1)c1ccccc1Oc1ncnc(F)c1F` [IV-1, [2-(5,6-difluoro-pyrimidine-4-yloxy)-phenyl]-(5,6-dihydro-[1,4,2]oxathiazin-3-yl)-methanone O-methyloxime], for which the chromatographic logP in data set [2] is 2.8.

For `CON=C1C(=NOCCBr)Oc2ccccc21` (single isomer, unassigned) [VII-1 Isomer A, benzofuran-2,3-dione 2-[O-(2-bromoethyl)-oxime] 3-(O-methyloxime)], in data set [2], the chromatographic logP is 3.08.

In the case of `CON=C1C(=NOCCBr)Oc2ccccc21` (single isomer, unassigned) [VII-1 Isomer B, benzofuran-2,3-dione 2-[O-(2-bromoethyl)-oxime] 3-(O-methyloxime)], the chromatographic logP in data set [2] stood at 3.23.

Consider `CON=C1C(=NOCCSC(C)=O)Oc2ccccc21` (single isomer, unassigned) [VI-1 Isomer A, S-[2-(3-methoxyimino-3H-benzofuran-2-ylideneaminooxy)-ethyl]thioacetate], for which the chromatographic logP in data set [2] was 3.01.

On to `CON=C1C(=NOCCSC(C)=O)Oc2ccccc21` (single isomer, unassigned) [VI-1 Isomer B, S-[2-(3-methoxyimino-3H-benzofuran-2-ylideneaminooxy)-ethyl]thioacetate], for which, in data set [2], the chromatographic logP was 3.18.

Regarding `CON=C(C1=NOCCS1)c1ccccc1O` [II-1, (5,6-dihydro-[1,4,2]oxathiazin-3-yl)-(2-hydroxyphenyl)-methanone O-methyloxime], the chromatographic logP in data set [2] is 1.75.
